From patent publication US8288396B2, “Pyrimidopyrimidoindazole derivative” (MSDKK, priority 2009, dated 2012)
Where a name gives a salt, the structure may show the parent alone.

Key:
[1] = target: T1, Wee1 kinase (Homo sapiens, UniProt P30291); experiment: Wee1 kinase inhibitory effect (Pharmacological Test 1); assay type: biochemical; settings: GST-tagged Wee1 kinase, Poly(Lys, Tyr) substrate, 10 μM ATP, 30° C. for 30 minutes
T1 construct: made in house; host or cells: Sf9 insect cells (recombinant baculovirus)
T1 sequence (P30291 whole entry): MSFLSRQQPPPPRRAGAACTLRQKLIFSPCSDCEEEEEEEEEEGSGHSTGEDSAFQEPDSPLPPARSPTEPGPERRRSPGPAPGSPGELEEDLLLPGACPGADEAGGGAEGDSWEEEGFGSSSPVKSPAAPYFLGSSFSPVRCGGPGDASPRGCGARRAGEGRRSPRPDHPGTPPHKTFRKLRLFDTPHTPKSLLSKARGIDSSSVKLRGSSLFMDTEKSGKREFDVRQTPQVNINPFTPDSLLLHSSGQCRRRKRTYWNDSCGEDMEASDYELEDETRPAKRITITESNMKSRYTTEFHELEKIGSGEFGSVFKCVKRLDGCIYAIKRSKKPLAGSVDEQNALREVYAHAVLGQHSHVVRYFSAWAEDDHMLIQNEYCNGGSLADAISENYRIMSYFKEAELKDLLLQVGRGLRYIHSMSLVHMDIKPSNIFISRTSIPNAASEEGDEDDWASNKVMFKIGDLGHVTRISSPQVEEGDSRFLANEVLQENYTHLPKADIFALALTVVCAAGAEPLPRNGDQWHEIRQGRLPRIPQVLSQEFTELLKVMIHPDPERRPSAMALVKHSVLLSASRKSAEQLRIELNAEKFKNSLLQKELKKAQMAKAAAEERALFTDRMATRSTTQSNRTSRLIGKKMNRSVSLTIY
From the text: Pharmacological Test 1 (Wee1 Kinase Inhibitory Effect)
(1) Purification of Wee1 Kinase
A cDNA of Wee1 kinase with […] (GST) fused at the amino terminal thereof was inserted into a baculovirus expression vector to construct a recombinant baculovirus, with which cells of an insect cell line Sf9 were infected to overexpress the target protein. The infected cells were collected and lysed, and then the GST-tagged Wee1 kinase protein was adsorbed to a glutathione column and eluted from the column with glutathione, and the active fraction was desalted in a desalting column to give a purified enzyme.
(2) Measurement of Wee1 Kinase Activity
In measurement of the Wee1 kinase activity, a synthetic peptide, Poly(Lys, Tyr) hydrobromide (Lys:Tyr (4:1)) purchased from Sigma was used as the substrate.
The amount of the reaction mixture was 21.1 μL; and the composition of the reaction buffer was 50 mM Tris-HCl buffer (pH 7.4)/10 mM magnesium chloride/1 mM dithiothreitol. The purified Wee1 kinase, 2.5 μg of the substrate peptide, 10 μM of non-labeled adenosine triphosphate (ATP) and 1 μCi of [γ-^33P]-labeled ATP (2500 Ci/mmol or more) were added to the reaction buffer, and the resulting mixture was incubated at 30° C. for 30 minutes. Thereafter, 10 μL of 350 mM phosphate buffer was added to the reaction system to stop the reaction. The substrate peptide was adsorbed on a P81 paper filter 96-well plate and the plate was washed several times with 130 mM phosphate buffer, and the radioactivity thereof was counted using a liquid scintillation counter. The [γ-^33P]-labeled ATP was purchased from Amersham Bioscience, Ltd.
The addition of a test compound to the reaction system was carried out by preparing a series of dilutions of the compound with dimethyl sulfoxide (DMSO) and adding 1.1 μL of each dilution to the reaction system. As a control, 1.1 μL of DMSO was added to the reaction system.

[2] = system: Cdc2 (Cdk1) tyrosine-15 phosphorylation; experiment: Inhibitory effect on Cdc2 (Cdk1) tyrosine-15 phosphorylation in NCI-H1299 cells (Pharmacological Test 2); assay type: cell-based; settings: Homo sapiens, camptothecin 200 nM 16 hours, then test compound with nocodazole 8 hours, ELISA, read-out: Cdc2-Y15 Phosphorylation-Inhibitory Effect (H1299, +camptothecin) (EC50)
From the text: Pharmacological Test 2 (Method for Determining Drug Effect Using Cells (Inhibitory Effect on Cdc2 (Cdk1) Tyrosine-15 Phosphorylation))
Fetal bovine serum (FBS) was purchased from Morgate, Inc.; an RPMI-1640 medium and a DMEM medium were purchased from Invitrogen, Inc.; camptothecin was purchased from Sigma Co.; gemcitabine was purchased from Eli Lilly Japan K.K.; nocodazole and protease inhibitor cocktail were purchased from Sigma Co.; a rabbit anti-Cdc2 antibody and a mouse anti-Cdc2 antibody were purchased from Santa Cruz Biotechnology, Inc.; a rabbit anti-tyrosine-15-phosphorylated Cdc2 antibody and a horseradish peroxidase-labeled anti-mouse IgG antibody were purchased from Cell Signaling Technology, Inc.; and Sure Blue Reserve TMB peroxidase substrate was purchased from Kirkegaard & Perry Laboratories, Inc.
A human non-small cell lung cancer cell line (NCI-H1299) and a human colon cancer cell line (WiDr) can be obtained from American Type Culture Collection (ATCC).
In the method using NCI-H1299 cells, the cells were suspended in an RPMI-1640 medium supplemented with 10% FBS, and 100 μL of the resulting cell suspension was dispensed in a Nunclon Delta treated 96-well plastic plate purchased from Nunc, Inc. at a density of 2000 cells per well, and the plate was incubated overnight at 37° C. under an atmosphere of 5% CO2 and 95% air. Camptothecin was dissolved in dimethyl sulfoxide (DMSO) and further the resulting solution was diluted with an RPMI-1640 medium supplemented with 10% FBS. Then, 50 μL of the diluted solution was added to each well of the plate in which the cells were seeded in advance such that the final concentration of camptothecin was 200 nM, and the plate was incubated at 37° C. under an atmosphere of 5% CO2 and 95% air for 16 hours. A test compound was serially diluted with DMSO, and further diluted with an RPMI-1640 medium supplemented with 10% FBS containing 4000 nM nocodazole. Then, 50 μL of the test compound solution was added to each well of the plate in which the cells treated with camptothecin were seeded, and the plate was incubated at 37° C. under an atmosphere of 5% CO2 and 95% air for 8 hours. Then, the culture medium was removed from each well and 100 μL of a cell lysis buffer was added to each well, and the plate was shaken at 4° C. for 2 hours, and thereafter the liquid in the plate was frozen at −80° C. and then thawed, which was used as a lysed cell solution. Cdc2 and tyrosine-15-phosphorylated Cdc2 in this lysed cell solution were measured by an enzyme-linked immunosorbent assay (ELISA method), and a ratio of tyrosine-15-phosphorylated Cdc2 to Cdc2 was calculated to determine a 50% effective concentration (EC50, nM) of the test compound for inhibition of phosphorylation in cells. The cell lysis buffer as used herein is an aqueous solution containing 20 mM HEPES (pH 7.5), 150 mM sodium chloride, 1 mM disodium ethylenediamine tetraacetate, 0.1% polyoxyethylene (10) octylphenyl ether, 1% protease inhibitor cocktail, 1 mM dithiothreitol, 2 mM sodium orthovanadate, 10 mM sodium fluoride and 10 mM glycerol diphosphate. The measurement of Cdc2 by the ELISA method was carried out as follows. 50 μL of a solution of a rabbit anti-Cdc2 antibody obtained by diluting the antibody to 200 times with 50 mM carbonate-bicarbonate buffer (pH 9.6) was dispensed into each well of a 96-well Maxisorb immunoplate purchased from Nunc, Inc., and the immunoplate was let stand overnight at 4° C. to immobilize the antibody thereto. Subsequently, each well was washed three times with phosphate buffered saline (PBS), and 300 μL of PBS containing 5% bovine serum albumin (5% BSA/PBS) was added to each well, and then, the immunoplate was let stand at room temperature for 2 hours. […]

IC50 [1] [µM] | EC50 [2] [µM] | Structure (SMILES)
0.0051 | 0.052 | CN1CCc2cc(Nc3ncc4c(=O)n5c(nc4n3)c3ccccc3n5-c3ncccn3)ccc2C1 [Example 100, 2-[(2-methyl-1,2,3,4-tetrahydroisoquinolin-6-yl)amino]-7-(pyrimidin-2-yl)pyrimido[4′,5′:4,5]pyrimido[1,2-b]indazol-5(7H)-one]
0.023 | – | CN(C)CCCOc1ccc(Nc2ncc3c(=O)n4c(nc3n2)c2ccccc2n4-c2nccs2)cc1 [Example 121, 2-({4-[3-(dimethylamino)propoxy]phenyl}amino)-7-(1,3-thiazol-2-yl)pyrimido[4′,5′:4,5]pyrimido[1,2-b]indazol-5(7H)-one]
0.013 | – | CN1CCN(c2ccc(Nc3ncc4c(=O)n5c(nc4n3)c3ccccc3n5-c3cscn3)cc2)CC1 [Example 146, 2-{[4-(4-methylpiperazin-1-yl)phenyl]amino}-7-(1,3-thiazol-4-yl)pyrimido[4′,5′:4,5]pyrimido[1,2-b]indazol-5(7H)-one]
0.019 | – | CN1Cc2ccc(Nc3ncc4c(=O)n5c(nc4n3)c3ccccc3n5-c3ncccn3)cc2C1 [Example 102, 2-[(2-methyl-2,3-dihydro-1H-isoindol-5-yl)amino]-7-(pyrimidin-2-yl)pyrimido[4′,5′:4,5]pyrimido[1,2-b]indazol-5(7H)-one]
0.0053 | 0.011 | CN1CCc2cc(Nc3ncc4c(=O)n5c(nc4n3)c3ccccc3n5-c3nccs3)ccc2C1 [Example 136, 2-[(2-methyl-1,2,3,4-tetrahydroisoquinolin-6-yl)amino]-7-(1,3-thiazol-2-yl)pyrimido[4′,5′:4,5]pyrimido[1,2-b]indazol-5(7H)-one]
0.0068 | 0.031 | CN1CCc2cc(Nc3ncc4c(=O)n5c(nc4n3)c3ccccc3n5-c3ncccn3)ccc2C1(C)C [Example 103, 7-(pyrimidin-2-yl)-2-[(1,1,2-trimethyl-1,2,3,4-tetrahydroisoquinolin-6-yl)amino]pyrimido[4′,5′:4,5]pyrimido[1,2-b]indazol-5(7H)-one]
0.0086 | – | CN1CCN(c2ccc(Nc3ncc4c(=O)n5c(nc4n3)c3ccc(O)cc3n5-c3ccccn3)cc2)CC1 [Example 150, 9-hydroxy-2-{[4-(4-methylpiperazin-1-yl)phenyl]amino}-7-(pyridin-2-yl)pyrimido[4′,5′:4,5]pyrimido[1,2-b]indazol-5(7H)-one trifluoroacetate]
0.0038 | 0.043 | CN1CCc2ccc(Nc3ncc4c(=O)n5c(nc4n3)c3ccccc3n5-c3ncccn3)cc2C1 [Example 101, 2-[(2-methyl-1,2,3,4-tetrahydroisoquinolin-7-yl)amino]-7-(pyrimidin-2-yl)pyrimido[4′,5′:4,5]pyrimido[1,2-b]indazol-5(7H)-one]
0.0061 | 0.017 | CN1CCc2ccc(Nc3ncc4c(=O)n5c(nc4n3)c3ccccc3n5-c3nccs3)cc2C1 [Example 137, 2-[(2-methyl-1,2,3,4-tetrahydroisoquinolin-7-yl)amino]-7-(1,3-thiazol-2-yl)pyrimido[4′,5′:4,5]pyrimido[1,2-b]indazol-5(7H)-one]
0.034 | – | CN(C)Cc1ccc(Nc2ncc3c(=O)n4c(nc3n2)c2ccccc2n4-c2ncccn2)cc1 [Example 91, 2-({-4-[(dimethylamino)methyl]phenyl}amino)-7-(pyrimidin-2-yl)pyrimido[4′,5′:4,5]pyrimido[1,2-b]indazol-5(7H)-one]
0.046 | – | CN(C)CCc1ccc(Nc2ncc3c(=O)n4c(nc3n2)c2ccccc2n4-c2ncccn2)cc1 [Example 92, 2-({4-[2-(dimethylamino)ethyl]phenyl}amino)-7-(pyrimidin-2-yl)pyrimido[4′,5′:4,5]pyrimido[1,2-b]indazol-5(7H)-one]

Second part, the molecule before the results:

Structure (SMILES) | IC50 [1] [µM] | EC50 [2] [µM]
CN1CCc2ccc(Nc3ncc4c(=O)n5c(nc4n3)c3ccccc3n5-c3ccccn3)cc2C1 [Example 44, 2-[(2-methyl-1,2,3,4-tetrahydroisoquinolin-7-yl)amino]-7-(pyridin-2-yl)pyrimido[4′,5′:4,5]pyrimido[1,2-b]indazol-5(7H)-one] | 0.0039 | 0.038
Cc1cc(Nc2ncc3c(=O)n4c(nc3n2)c2ccccc2n4-c2ncccn2)ccc1N1CCN(C)CC1 [Example 61, 2-{[3-methyl-4-(4-methylpiperazin-1-yl)phenyl]amino}-7-(pyrimidin-2-yl)pyrimido[4′,5′:4,5]pyrimido[1,2-b]indazol-5(7H)-one] | 0.012 | 0.13
Cc1cc(Nc2ncc3c(=O)n4c(nc3n2)c2ccccc2n4-c2ccccn2)ccc1N1CCN(C)CC1 [Example 21, 2-{[3-methyl-4-(4-methylpiperazin-1-yl)phenyl]amino}-7-(pyridin-2-yl)pyrimido[4′,5′:4,5]pyrimido[1,2-b]indazol-5(7H)-one] | 0.032 | 0.111
CN1CCC(C)(c2ccc(Nc3ncc4c(=O)n5c(nc4n3)c3ccccc3n5-c3ncccn3)cc2)CC1 [Example 88, 2-{[4-(1,4-dimethylpiperidin-4-yl)phenyl]amino}-7-(pyrimidin-2-yl)pyrimido[4′,5′:4,5]pyrimido[1,2-b]indazol-5(7H)-one] | 0.026 | –
CN1CCc2cc(Nc3ncc4c(=O)n5c(nc4n3)c3ccccc3n5-c3ccccn3)ccc2C1 [Example 43, 2-[(2-methyl-1,2,3,4-tetrahydroisoquinolin-6-yl)amino]-7-(pyridin-2-yl)pyrimido[4′,5′:4,5]pyrimido[1,2-b]indazol-5(7H)-one] | 0.0049 | 0.031
CN1CCN(c2ccc(Nc3ncc4c(=O)n5c(nc4n3)c3ccccc3n5-c3ncccn3)cc2)CC1 [Example 62, 2-{[4-(4-methylpiperazin-1-yl)phenyl]amino}-7-(pyrimidin-2-yl)pyrimido[4′,5′:4,5]pyrimido[1,2-b]indazol-5(7H)-one] | 0.038 | –
Cc1cc(Nc2ncc3c(=O)n4c(nc3n2)c2ccccc2n4-c2ccsc2)ccc1N1CCN(C)CC1 [Example 55, 2-{[3-methyl-4-(4-methylpiperazin-1-yl)phenyl]amino}-7-(3-thienyl)pyrimido[4′,5′:4,5]pyrimido[1,2-b]indazol-5(7H)-one] | 0.013 | –
CN1CCN(c2ccc(Nc3ncc4c(=O)n5c(nc4n3)c3ccccc3n5-c3ccccn3)cc2)CC1 [Example 23, 2-{[4-(4-methylpiperazin-1-yl)phenyl]amino}-7-(pyridin-2-yl)pyrimido[4′,5′:4,5]pyrimido[1,2-b]indazol-5(7H)-one] | 0.03 | –
